Earlier results as cited in patent US20120058950A1, “DETECTION OF NEUROPEPTIDES ASSOCIATED WITH PELVIC PAIN DISORDERS AND USES THEREOF” (University of Vermont and State Agricultural College, priority 2003, published 2012).
No end group written: not given here.

Tests used:
[1] = tested on: detrusor
[2] = tested on: bladder

In the case of “Pituitary Adenylate Cyclase Activating Peptide (HSDGIFTDSYSRYRKQMAVKKYLAAVLGKRYKQRVKNK; ends and bridges not checked; UniProt P18509 132-169, looked up) [PACAP]”, the “bladder activity in vitro (contraction of detrusor, alteration of electrically or cholinergically elicited contractions)” value [1] is listed as “no bladder activity in vitro” and the “activity when infused near the bladder” value [2] is listed as “has activity when infused near the bladder”.
